In patent US8785630B2, “Insecticidal triazines and pyrimidines” (Vestaron Corporation, priority 2011, dated 2014) one finds mortality data, which are given here for seven compounds.

SMILES strings stand for the structures.

The experiment deals with beet armyworm (Spodoptera exigua). The experiment in a line: Insecticidal test for beet armyworm, treated diet surface. Type of experiment: in vivo. Conditions: 100 μg/cm^2 on diet surface, first instar larvae, 32 insects per treatment, observations 24, 48 and 96 hours. How it is done: The compounds identified in Table 8 were prepared according to the previous methods and were tested against beet armyworm and corn earworm as follows:
Insecticidal Test for Beet Armyworm (Spodoptera exigua).
To prepare the test solution, the test compound was Formulated at 3499 ppm in solution as 5 mg compound/1.429 mL of 9 parts acetone: 1 part deionized H2O and vortexed to homogenize. 50 μL of the 3499 ppm (equivalent to 100 μg/cm^2 dose on diet surface area) test solution was pipetted upon the surface of 1 mL of solidified cool Southland Products Incorporated Beet Armyworm Diet (201 Stuart Island Road Lake Village, Ark. 71653) using an Eppendorf Repeater Plus with a 1 mL pipette tip. All pipetting of treatments was done in a Labconco Hood. Thirty minutes were allowed for the acetone to evaporate leaving a dose of 100 μg/cm^2 on the surface of the artificial diet. Two 24 hour old first instar Beet Armyworm (Spodoptera Exigua) larvae were placed in each well of the 128 well Bio-BA 128 Bioassay trays (CD International, Pitman, N.J., 08071, USA) using a #0 fine camel hair paint brush. Bioassay trays were sectioned into treatment groups of 8 with 16 replicates per treatment group (32 insects per treatment). Trays containing the treated diet and larvae were covered with a Bio-CV-16 cover (CD International, Pitman, N.J., 08071, USA) and then placed on a rack under florescent lights at 27° C., 20% relative humidity (RH) in the room, and 16 hr light: 8 hr dark for 96 hours. Observations were made 24, 48 and 96 hours after treatment and infestation. The number of insects dead were counted out of the 32 insects total per treatment and the results are given in a table as a percent mortality at a dose of 100 μg/cm^2. When finished, the tray was moved to the −5° C. freezer and left for 24 hr to insure mortality of the remaining S. exigua. After 24 hours, dispose of entire tray into waste bin.
Keys to the table: Mortality refers to activity against beet army worm (Spodoptera exigua) as defined above at the concentration of 100 μg/cm^2 (A=76-100% mortality, B=51-75% mortality, C=26-50% mortality and D=0-25% mortality).
`Fc1cc(C=NNc2nc(Nc3ccc(Cl)nc3)nc(-c3c(F)cccc3Cl)n2)ccc1C(F)(F)F` [Example 55, 4-(2-chloro-6-fluorophenyl)-N-(6-chloropyridin-3-yl)-6-(2-(3-fluoro-4-(trifluoromethyl)benzylidene)hydrazinyl)-1,3,5-triazin-2-amine] displayed a mortality at 100 µg/cm2 of 76 to 100%. To `FC(F)(F)Oc1ccc(C=NNc2nc(NCc3ccc(Cl)nc3)cc(-c3ccccc3)n2)cc1` [Example 56, N-((6-chloropyridin-3-yl)methyl)-6-phenyl-2-(2-(4-(trifluoromethoxy)benzylidene)hydrazinyl)pyrimidin-4-amine] belongs 76 to 100%. `FC(F)(F)Oc1ccc(C=NNc2nc(Nc3ccc(Cl)cc3)cc(-c3ccccc3)n2)cc1` [Example 57, N-(4-chlorophenyl)-6-phenyl-2-(2-(4-(trifluoromethoxy)benzylidene)hydrazinyl)pyrimidin-4-amine] yielded a mortality at 100 µg/cm2 of 76 to 100%.

`FC(F)(F)Oc1ccc(C=NNc2cc(-c3ccccc3)nc(Nc3ccc(Cl)cc3)n2)cc1` [Example 58, N-(4-chlorophenyl)-4-phenyl-6-(2-(4-(trifluoromethoxy)benzylidene)hydrazinyl)pyrimidin-2-amine] showed a mortality at 100 µg/cm2 of 76 to 100%. For the compound `Fc1cccc(Cl)c1-c1cc(Nc2ccc(Cl)nc2)nc(NN=Cc2ccc(OC(F)(F)F)cc2)n1` [Example 59, 6-(2-chloro-6-fluorophenyl)-N-(6-chloropyridin-3-yl)-2-(2-(4-(trifluoromethoxy)benzylidene)hydrazinyl)pyrimidin-4-amine], the mortality at 100 µg/cm2 was in the range of 76 to 100%. `Fc1cccc(Cl)c1-c1nc(NCc2ccc(Cl)cc2)nc(NN=Cc2ccc(OC(F)(F)F)cc2)n1` [Example 60, 4-(2-chloro-6-fluorophenyl)-N-(4-chlorobenzyl)-6-(2-(4-(trifluoromethoxy)benzylidene)hydrazinyl)-1,3,5-triazin-2-amine] came in with a mortality at 100 µg/cm2 of 76 to 100%. To `FC(F)(F)Oc1ccc(C=NNc2nc(NCc3ccc(Cl)cc3)cc(-c3ccccc3)n2)cc1` [Example 61, N-(4-chlorobenzyl)-6-phenyl-2-(2-(4-(trifluoromethoxy)benzylidene)hydrazinyl)pyrimidin-4-amine] belongs 76 to 100%.

As usually defined, the mortality is the percentage killed. A higher mortality goes with a strong lethal effect.
